Test results taken from patent US9988400B2 (Genentech, Inc., priority 2013, dated 2018).

Target: T1, HEK cells stably transfected with tetracycline inducible hNR1 and hNR2A (Homo sapiens, UniProt Q05586+Q12879)
T1 construct: expressed in transfected cells; host or cells: HEK cells, stably transfected, tetracycline/doxycycline inducible
Assay: Assay 1: Cell-Based Assay, cytosolic calcium response to positive allosteric modulators (with 30 μM glycine and 300 nM L-glutamate, EC30)
Settings: Table 2; for EC50: cytosolic calcium response, with 30 μM glycine and 300 nM L-glutamate (EC30), — = no plateau was reached; for Max %: responses scaled relative to 100 μM L-glutamate maximal response (100%) and 0 μM L-glutamate (0%)
Outline: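 Cells induced 24 h with 7.5 μg mL^−1 doxycycline plus 500 μM (+)-ketamine, loaded 60 min at 37 °C with calcium dye in Mg-free HBSS (1.8 mM Ca, probenecid, 10 μM (+)-ketamine, pH 7.15). Peak RFU over 5 min after compound addition, scaled to 100 μM L-glutamate (100%) and 0 μM (0%); four-parameter Hill fit for EC50, max % if no plateau.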

T1 sequence (Q12879 23-1464, other chains not shown): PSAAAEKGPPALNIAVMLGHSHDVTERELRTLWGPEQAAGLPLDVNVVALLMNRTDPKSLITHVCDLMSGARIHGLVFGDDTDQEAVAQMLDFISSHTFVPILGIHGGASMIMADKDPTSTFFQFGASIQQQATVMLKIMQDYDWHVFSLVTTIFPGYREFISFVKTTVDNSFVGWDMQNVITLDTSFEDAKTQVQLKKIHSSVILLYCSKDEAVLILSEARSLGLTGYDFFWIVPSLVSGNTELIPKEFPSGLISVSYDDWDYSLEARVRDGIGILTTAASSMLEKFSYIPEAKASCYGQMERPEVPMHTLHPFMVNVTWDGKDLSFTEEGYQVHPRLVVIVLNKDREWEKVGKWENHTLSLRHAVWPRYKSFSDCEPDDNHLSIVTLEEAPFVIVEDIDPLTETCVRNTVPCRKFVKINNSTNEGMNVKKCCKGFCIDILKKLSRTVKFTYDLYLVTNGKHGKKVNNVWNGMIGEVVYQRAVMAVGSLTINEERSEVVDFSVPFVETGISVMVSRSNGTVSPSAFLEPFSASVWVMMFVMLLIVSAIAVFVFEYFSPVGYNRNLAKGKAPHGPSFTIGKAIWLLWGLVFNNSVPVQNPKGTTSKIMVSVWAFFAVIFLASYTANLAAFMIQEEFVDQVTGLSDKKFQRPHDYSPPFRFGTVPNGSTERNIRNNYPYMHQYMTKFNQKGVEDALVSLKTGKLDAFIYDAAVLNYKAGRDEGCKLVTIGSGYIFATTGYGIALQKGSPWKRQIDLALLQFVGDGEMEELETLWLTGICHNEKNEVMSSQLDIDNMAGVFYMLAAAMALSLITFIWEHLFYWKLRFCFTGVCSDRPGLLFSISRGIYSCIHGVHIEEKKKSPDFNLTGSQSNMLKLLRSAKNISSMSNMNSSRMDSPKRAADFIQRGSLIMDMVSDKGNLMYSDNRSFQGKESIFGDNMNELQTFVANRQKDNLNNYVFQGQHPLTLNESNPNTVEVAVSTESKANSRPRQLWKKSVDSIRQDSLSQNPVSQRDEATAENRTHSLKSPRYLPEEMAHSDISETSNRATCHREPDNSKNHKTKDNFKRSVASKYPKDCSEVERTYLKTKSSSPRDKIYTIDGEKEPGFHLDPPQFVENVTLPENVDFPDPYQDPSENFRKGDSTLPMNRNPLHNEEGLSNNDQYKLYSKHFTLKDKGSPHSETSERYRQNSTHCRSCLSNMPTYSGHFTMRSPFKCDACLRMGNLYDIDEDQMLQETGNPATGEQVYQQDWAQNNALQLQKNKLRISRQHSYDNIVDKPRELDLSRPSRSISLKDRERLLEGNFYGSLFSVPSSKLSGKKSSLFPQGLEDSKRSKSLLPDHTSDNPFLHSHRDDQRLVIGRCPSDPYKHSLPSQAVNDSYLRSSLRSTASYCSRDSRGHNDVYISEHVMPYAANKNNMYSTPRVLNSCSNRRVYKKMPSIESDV

Row | SMILES | EC50 [µM] | Max % [%]
1 | Cc1sc2nc(Cc3cccc(C#N)c3)cc(=O)n2c1C1CC1CO (stereo not drawn) [Example 20.1, 3-((3-(trans-2-(hydroxymethyl)cyclopropyl)-2-methyl-5-oxo-5H-thiazolo[3,2-a]pyrimidin-7-yl)methyl)benzonitrile] | 3.1 | 137
2 | Cc1sc2nc(Cc3cccc(C#N)c3)c(F)c(=O)n2c1C1CC1CO (centres unmarked) [Example 20.2, 3-((6-fluoro-3-(2-(hydroxymethyl)cyclopropyl)-2-methyl-5-oxo-5H-thiazolo[3,2-a]pyrimidin-7-yl)methyl)benzonitrile] | 7.4 | 145
3 | Cc1sc2nc(Cc3ccc(C(F)(F)F)cc3)cc(=O)n2c1C1CC1CO (centres unmarked) [Example 20.11, 3-(2-(hydroxymethyl)cyclopropyl)-2-methyl-7-(4-(trifluoromethyl)benzyl)-5H-thiazolo[3,2-a]pyrimidin-5-one] | 31.2 | 78.7
4 | CNC(=O)c1c(C)sc2nc(Cc3cccc(C#N)c3)cc(=O)n12 [Example 21.1, 7-(3-cyanobenzyl)-N,2-dimethyl-5-oxo-5H-thiazolo[3,2-a]pyrimidine-3-carboxamide] | – | 96.6
5 | CNC(=O)c1c(C)sc2nc(Cc3cccc(C#N)c3F)cc(=O)n12 [Example 21.2, 7-(3-cyano-2-fluorobenzyl)-N,2-dimethyl-5-oxo-5H-thiazolo[3,2-a]pyrimidine-3-carboxamide] | 21.6 | 133
6 | CCNC(=O)c1c(C)sc2nc(Cc3cccc(Cl)c3F)cc(=O)n12 [Example 21.3, 7-(3-chloro-2-fluorobenzyl)-N-ethyl-2-methyl-5-oxo-5H-thiazolo[3,2-a]pyrimidine-3-carboxamide] | 7.6 | 131
7 | CNC(=O)c1c(C)sc2nc(Cc3cccc(C(F)(F)F)c3F)cc(=O)n12 [Example 21.4] | 7.4 | 129
8 | CCNC(=O)c1c(C)sc2nc(Cc3cccc(C)c3F)cc(=O)n12 [Example 21.5, N-ethyl-7-(2-fluoro-3-methylbenzyl)-2-methyl-5-oxo-5H-thiazolo[3,2-a]pyrimidine-3-carboxamide] | 18.9 | 124
9 | CCNC(=O)c1c(C)sc2nc(Cc3cc(C#N)ccc3Cl)cc(=O)n12 [Example 21.6, 7-(2-chloro-5-cyanobenzyl)-N-ethyl-2-methyl-5-oxo-5H-thiazolo[3,2-a]pyrimidine-3-carboxamide] | 45.3 | 114
10 | CCNC(=O)c1c(C)sc2nc(Cc3cccc(C(F)(F)F)c3)cc(=O)n12 [Example 21.7, N-ethyl-2-methyl-5-oxo-7-(3-(trifluoromethyl)benzyl)-5H-thiazolo[3,2-a]pyrimidine-3-carboxamide] | – | 100
11 | CCNC(=O)c1c(C)sc2nc(Cc3cccc(C#N)c3)cc(=O)n12 [Example 21.8, 7-(3-cyanobenzyl)-N-ethyl-2-methyl-5-oxo-5H-thiazolo[3,2-a]pyrimidine-3-carboxamide] | – | 99.3
12 | CCNC(=O)c1c(C2CC2)sc2nc(Cc3cccc(C#N)c3F)cc(=O)n12 [Example 21.9, 7-(3-cyano-2-fluorobenzyl)-2-cyclopropyl-N-ethyl-5-oxo-5H-thiazolo[3,2-a]pyrimidine-3-carboxamide] | – | 90.1
13 | CCNC(=O)c1c(C)sc2nc(Cc3cc(F)cc(C#N)c3)cc(=O)n12 [Example 21.10, 7-(3-cyano-5-fluorobenzyl)-N-ethyl-2-methyl-5-oxo-5H-thiazolo[3,2-a]pyrimidine-3-carboxamide] | – | 70.3
14 | CCNC(=O)c1c(C)sc2nc(Cc3cccc(C#N)c3)cc(=O)n12 [Example 21.11, 7-(3-cyanobenzyl)-N-ethyl-2-methyl-5-oxo-5H-thiazolo[3,2-a]pyrimidine-3-carboxamide] | – | 47
15 | CCNC(=O)c1c(C)sc2nc(Cc3cccc(C(F)(F)F)c3F)cc(=O)n12 [Example 21.12, N-ethyl-7-(2-fluoro-3-(trifluoromethyl)benzyl)-2-methyl-5-oxo-5H-thiazolo[3,2-a]pyrimidine-3-carboxamide] | 6.7 | –
16 | CCNC(=O)c1c(C)sc2nc(Cc3cccc(C#N)c3F)cc(=O)n12 [Example 21.13, 7-(3-cyano-2-fluorobenzyl)-N-ethyl-2-methyl-5-oxo-5H-thiazolo[3,2-a]pyrimidine-3-carboxamide] | 12.3 | 131
17 | CNC(=O)c1c(C)sc2nc(Cc3cccc(Cl)c3F)cc(=O)n12 [Example 21.14, 7-[(3-chloro-2-fluoro-phenyl)methyl]-N,2-dimethyl-5-oxo-thiazolo[3,2-a]pyrimidine-3-carboxamide] | 11 | 112
18 | CNC(=O)c1c(C)sc2nc(Cc3cccc(C(F)(F)F)c3)cc(=O)n12 [Example 21.15, N,2-dimethyl-5-oxo-7-[[3-(trifluoromethyl)phenyl]methyl]thiazolo[3,2-a]pyrimidine-3-carboxamide] | – | 112
19 | CNC(=O)c1c(C)sc2nc(Cc3cccc(Cl)c3)cc(=O)n12 [Example 21.16, 7-[(3-chlorophenyl)methyl]-N,2-dimethyl-5-oxo-thiazolo[3,2-a]pyrimidine-3-carboxamide] | 14.3 | 107
20 | CNC(=O)c1c(C)sc2nc(Cc3cc(C(F)(F)F)ccc3C3CC3)cc(=O)n12 [Example 21.17, 7-[[2-cyclopropyl-5-(trifluoromethyl)phenyl]methyl]-N,2-dimethyl-5-oxo-thiazolo[3,2-a]pyrimidine-3-carboxamide] | 23.7 | 107
21 | CCNC(=O)c1c(C)sc2nc(Cc3cccc(C(F)(F)F)n3)cc(=O)n12 [Example 21.18, N-ethyl-2-methyl-5-oxo-7-((6-(trifluoromethyl)pyridine-2-yl)methyl)-5H-thiazolo[3,2-a]pyrimidine-3-carboxamide] | – | 58.5
22 | CCNC(=O)c1c(C)sc2nc(Cc3cc(F)c(F)cc3CC)cc(=O)n12 [Example 21.19, N-ethyl-7-(2-ethyl-4,5-difluorobenzyl)-2-methyl-5-oxo-5H-thiazolo[3,2-a]pyrimidine-3-carboxamide] | 7.4 | 145
23 | CCNC(=O)c1c(C)sc2nc(Cc3cccc(C(F)F)c3F)cc(=O)n12 [Example 21.20, 7-[[3-(difluoromethyl)-2-fluoro-phenyl]methyl]-N-ethyl-2-methyl-5-oxo-thiazolo[3,2-a]pyrimidine-3-carboxamide] | 5.2 | 114
24 | CCNC(=O)c1c(C)sc2nc(Cc3cc(F)ccc3CC)cc(=O)n12 [Example 21.21] | 33.6 | 134
25 | CCNC(=O)c1c(C)sc2nc(Cc3cccc(C#N)n3)cc(=O)n12 [Example 21.22, 7-((6-cyanopyridin-2-yl)methyl)-N-ethyl-2-methyl-5-oxo-5H-thiazolo[3,2-a]pyrimidine-3-carboxamide] | – | 60.1
26 | CNC(=O)c1c(C)sc2nc(Cc3cccc(C(F)F)c3F)cc(=O)n12 [Example 21.23, 7-[[3-(difluoromethyl)-2-fluoro-phenyl]methyl]-N,2-dimethyl-5-oxo-thiazolo[3,2-a]pyrimidine-3-carboxamide] | 6.5 | 107
27 | CNC(=O)c1c(C)sc2nc(Cc3cccc(CO)c3F)cc(=O)n12 [Example 21.24, 7-[[2-fluoro-3-(hydroxymethyl)phenyl]methyl]-N,2-dimethyl-5-oxo-thiazolo[3,2-a]pyrimidine-3-carboxamide] | 34.5 | 102
